Columns and labels:
CDK4 = CDK4 (Homo sapiens (Human), UniProt P11802); assay: Immunoblot of CDK4 protein in Calu-1 cells; assay type: cell-based; details: 1 μM, 16 hours after administration
Protocol: (§1) Additional heterobifunctional compounds were designed and tested for their ability to target and degrade another two target proteins, CDK4 and CDK6. Calu-1 cells that express CDK4/6 proteins were treated with heterobifunctional compounds disclosed herein (D-44 to D-49) at indicated concentrations for 16 hours. Cells were collected, lysed and subject to immunoblotting using an antibody specific to CDK4, CDK6 or phosphorylated Rb proteins. Tubulin was included as the loading control. DMSO treatment was used as the negative control. […] In addition, Calu-1 cells were treated with 1 μM D-48 or D-49 for an indicated period of time. Subsequently, changes in CDK4 and CDK6 protein levels were measured by immunoblotting. […] These experiments highlight the ability of DDB1 binder derived heterobifunctional compounds to degrade multiple different target proteins, including but not limited to epigenetic target proteins, such as CBP and p300, and kinases, such as CDK4 and CDK6.

CDK6 = CDK6 (Homo sapiens (Human), UniProt Q00534); assay: Immunoblot of CDK6 protein in Calu-1 cells; assay type: cell-based; details: 1 μM, 16 hours after administration
Protocol: as §1

Human DDB1 = Human DDB1 (Homo sapiens (Human), UniProt Q16531); assay: Surface plasmon resonance (SPR) binding assay to immobilized His-DDB1; details: SPR, DDB1 binding moieties with linkers and/or target protein binding moiety; read-out: Binding (Kd)
In short: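 Baculovirus-expressed His-DDB1 (High5 cells) amine-coupled to 11,000–13,000 RU on a CM5 chip; compounds injected in multi-cycle format without regeneration at 25° C in HBS-EP pH 7.4 (120 s association/dissociation). Double-referenced, solvent-corrected data fit to steady-state affinity model for KD.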

P300 [1] = target: T1, P300 (Homo sapiens (Human), UniProt Q09472); assay: Immunoblot of P300 in Calu-1 cells with co-administered proteasome, neddylation or DDB1-ligand competitor; assay type: cell-based
Source text: The heterobifunctional compound-mediated p300 and CBP degradation was dependent on the ubiquitin-proteasome system and cullin E3 ligase. […] The binding with DDB1 also played a role in the heterobifunctional compounds ability to induce degradation of P300 and CBP proteins.

P300 [2] = target: T1, P300; assay: Immunoblot of P300 protein in LNCaP cells after compound treatment; assay type: cell-based
Protocol: (§2) Experiments were performed to see if heterobifunctional compounds as described herein could degrade target proteins. Specific exemplary heterobifunctional compounds were characterized in LNCaP and Calu-1 cells. LNCaP cells that express P300/CBP proteins were treated with heterobifunctional compounds disclosed herein (D-2, D-13, or D-7) at indicated concentrations for 8 hours. Cells were collected, lysed and subject to immunoblotting using an antibody specific to P300 or CBP proteins. Vinculin was included as the loading control. DMSO treatment was used as the negative control. […] In addition, LNCaP cells were treated with 500 nM of D-2, or D-13 for indicated period of time. Subsequently, changes in P300 and CBP protein levels were measured by immunoblotting.

LNCaP cells = assay: LNCaP cell viability (CellTiter-Glo); assay type: cell-based; details: three days
Protocol: LNCaP cells seeded in 96-well plates were treated with 10 μM GNE-781 or selected heterobifunctional compounds, following a 12-point 3-fold serial dilution. Three days after treatment, cell viability was determined using the CellTiter-Glo Kit (Promega). Cell viability was normalized to the mean values of 3 replicates of untreated cells. Dose-dependent response was analyzed following the least-squares non-linear regression method using the GraphPad Prism software.

CBP = CBP (Homo sapiens (Human), UniProt Q92793); assay: Immunoblot of CBP protein in LNCaP cells after compound treatment; assay type: cell-based
Protocol: as §2

[3] = indicated concentrations, 8 hours, immunoblot

Chain of Human DDB1 (Q16531 whole entry): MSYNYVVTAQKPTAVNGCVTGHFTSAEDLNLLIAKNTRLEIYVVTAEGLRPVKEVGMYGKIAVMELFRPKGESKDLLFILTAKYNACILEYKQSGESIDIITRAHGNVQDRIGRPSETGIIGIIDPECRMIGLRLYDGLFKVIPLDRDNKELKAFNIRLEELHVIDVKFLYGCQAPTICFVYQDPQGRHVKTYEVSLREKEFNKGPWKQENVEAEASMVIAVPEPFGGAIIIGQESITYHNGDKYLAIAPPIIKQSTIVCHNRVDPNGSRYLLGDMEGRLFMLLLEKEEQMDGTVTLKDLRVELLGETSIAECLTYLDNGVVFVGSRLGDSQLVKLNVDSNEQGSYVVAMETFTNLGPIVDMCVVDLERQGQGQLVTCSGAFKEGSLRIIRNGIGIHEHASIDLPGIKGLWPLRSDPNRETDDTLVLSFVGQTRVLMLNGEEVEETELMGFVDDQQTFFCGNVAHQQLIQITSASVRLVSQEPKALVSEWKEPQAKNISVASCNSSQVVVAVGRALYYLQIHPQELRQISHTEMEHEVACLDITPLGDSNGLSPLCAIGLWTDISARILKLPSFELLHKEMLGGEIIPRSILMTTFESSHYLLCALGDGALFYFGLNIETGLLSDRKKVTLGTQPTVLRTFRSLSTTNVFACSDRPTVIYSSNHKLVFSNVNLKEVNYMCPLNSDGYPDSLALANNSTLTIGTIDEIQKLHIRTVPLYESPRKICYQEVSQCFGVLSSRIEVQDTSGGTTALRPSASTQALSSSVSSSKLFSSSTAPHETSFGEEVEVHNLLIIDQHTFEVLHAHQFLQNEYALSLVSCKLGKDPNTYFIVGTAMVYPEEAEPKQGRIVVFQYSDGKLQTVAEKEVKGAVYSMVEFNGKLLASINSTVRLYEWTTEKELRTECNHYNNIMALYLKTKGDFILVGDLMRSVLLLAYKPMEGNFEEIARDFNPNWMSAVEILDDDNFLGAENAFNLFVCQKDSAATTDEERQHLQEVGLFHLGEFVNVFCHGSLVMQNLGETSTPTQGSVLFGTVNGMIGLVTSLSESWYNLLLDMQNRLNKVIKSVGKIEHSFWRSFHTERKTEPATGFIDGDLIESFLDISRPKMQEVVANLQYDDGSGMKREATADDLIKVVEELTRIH
T1 sequence (Q09472 whole entry): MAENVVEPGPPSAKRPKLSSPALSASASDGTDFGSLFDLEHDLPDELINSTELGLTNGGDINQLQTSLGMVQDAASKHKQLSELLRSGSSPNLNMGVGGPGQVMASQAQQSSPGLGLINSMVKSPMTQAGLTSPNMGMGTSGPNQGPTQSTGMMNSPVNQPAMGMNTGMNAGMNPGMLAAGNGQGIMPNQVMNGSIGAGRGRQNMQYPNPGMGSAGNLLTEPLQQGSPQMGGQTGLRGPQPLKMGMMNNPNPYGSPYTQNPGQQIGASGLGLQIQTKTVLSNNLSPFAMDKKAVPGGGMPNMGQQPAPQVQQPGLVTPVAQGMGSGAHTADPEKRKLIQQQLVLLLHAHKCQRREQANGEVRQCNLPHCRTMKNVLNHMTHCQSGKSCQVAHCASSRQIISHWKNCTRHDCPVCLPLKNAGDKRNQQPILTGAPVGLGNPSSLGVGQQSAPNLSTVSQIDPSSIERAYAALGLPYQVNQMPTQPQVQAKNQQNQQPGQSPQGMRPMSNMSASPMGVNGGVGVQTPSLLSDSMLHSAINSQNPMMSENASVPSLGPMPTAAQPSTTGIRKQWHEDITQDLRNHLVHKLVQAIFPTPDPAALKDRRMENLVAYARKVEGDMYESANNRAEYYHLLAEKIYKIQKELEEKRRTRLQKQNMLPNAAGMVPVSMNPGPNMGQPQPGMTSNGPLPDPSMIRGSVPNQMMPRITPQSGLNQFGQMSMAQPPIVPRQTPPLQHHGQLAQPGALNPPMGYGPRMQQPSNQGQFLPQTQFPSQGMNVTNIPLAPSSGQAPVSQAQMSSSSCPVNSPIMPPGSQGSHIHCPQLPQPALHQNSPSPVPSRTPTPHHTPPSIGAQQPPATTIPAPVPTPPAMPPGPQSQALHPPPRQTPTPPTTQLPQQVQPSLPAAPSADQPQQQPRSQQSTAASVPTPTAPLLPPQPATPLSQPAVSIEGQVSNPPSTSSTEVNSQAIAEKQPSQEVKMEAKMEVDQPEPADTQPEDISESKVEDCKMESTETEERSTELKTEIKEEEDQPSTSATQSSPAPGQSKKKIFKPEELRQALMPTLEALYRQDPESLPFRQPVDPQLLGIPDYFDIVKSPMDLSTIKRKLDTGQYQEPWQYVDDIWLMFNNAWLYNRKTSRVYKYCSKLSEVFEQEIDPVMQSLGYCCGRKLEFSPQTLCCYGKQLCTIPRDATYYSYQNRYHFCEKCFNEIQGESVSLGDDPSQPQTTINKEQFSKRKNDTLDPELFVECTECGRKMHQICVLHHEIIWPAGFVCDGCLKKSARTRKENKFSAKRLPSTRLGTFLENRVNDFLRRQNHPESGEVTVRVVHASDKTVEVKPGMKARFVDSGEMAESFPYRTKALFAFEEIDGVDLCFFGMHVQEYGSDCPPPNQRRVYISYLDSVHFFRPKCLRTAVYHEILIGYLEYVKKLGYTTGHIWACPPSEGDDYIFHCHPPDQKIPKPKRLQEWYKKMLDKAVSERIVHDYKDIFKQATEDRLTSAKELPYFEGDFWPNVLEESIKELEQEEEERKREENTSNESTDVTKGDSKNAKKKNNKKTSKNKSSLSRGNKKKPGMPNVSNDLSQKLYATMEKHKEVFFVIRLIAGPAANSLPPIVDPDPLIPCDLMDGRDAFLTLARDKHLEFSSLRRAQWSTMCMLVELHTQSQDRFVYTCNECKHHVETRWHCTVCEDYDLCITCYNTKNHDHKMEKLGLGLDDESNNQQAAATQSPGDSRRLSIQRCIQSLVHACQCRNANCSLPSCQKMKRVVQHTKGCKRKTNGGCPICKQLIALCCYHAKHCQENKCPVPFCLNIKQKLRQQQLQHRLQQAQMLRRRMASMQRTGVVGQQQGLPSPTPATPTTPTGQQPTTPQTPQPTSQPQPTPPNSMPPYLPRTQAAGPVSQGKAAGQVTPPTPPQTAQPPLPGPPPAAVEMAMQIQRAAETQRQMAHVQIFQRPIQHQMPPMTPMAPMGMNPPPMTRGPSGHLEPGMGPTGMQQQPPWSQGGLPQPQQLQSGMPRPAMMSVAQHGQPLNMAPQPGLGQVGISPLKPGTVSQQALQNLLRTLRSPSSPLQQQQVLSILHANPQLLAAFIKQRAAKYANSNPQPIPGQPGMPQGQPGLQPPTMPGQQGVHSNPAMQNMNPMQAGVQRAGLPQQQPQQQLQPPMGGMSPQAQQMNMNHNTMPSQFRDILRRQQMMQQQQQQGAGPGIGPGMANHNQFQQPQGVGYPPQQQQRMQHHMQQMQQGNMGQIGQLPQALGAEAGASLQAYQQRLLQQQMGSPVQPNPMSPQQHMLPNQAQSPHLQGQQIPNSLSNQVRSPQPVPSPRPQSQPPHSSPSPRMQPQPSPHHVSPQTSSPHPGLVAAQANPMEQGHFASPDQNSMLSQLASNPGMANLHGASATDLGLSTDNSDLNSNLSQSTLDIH
Chain of CDK6 (Q00534 whole entry): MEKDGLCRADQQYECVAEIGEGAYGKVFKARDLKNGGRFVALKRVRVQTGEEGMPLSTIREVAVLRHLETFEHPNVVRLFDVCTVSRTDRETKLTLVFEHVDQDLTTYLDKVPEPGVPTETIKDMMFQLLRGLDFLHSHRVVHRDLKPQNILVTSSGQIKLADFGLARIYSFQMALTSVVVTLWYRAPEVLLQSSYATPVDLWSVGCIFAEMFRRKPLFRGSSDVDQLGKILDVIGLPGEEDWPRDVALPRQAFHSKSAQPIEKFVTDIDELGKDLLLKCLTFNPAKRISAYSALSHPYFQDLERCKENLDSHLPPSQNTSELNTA
Chain of CDK4 (P11802 whole entry): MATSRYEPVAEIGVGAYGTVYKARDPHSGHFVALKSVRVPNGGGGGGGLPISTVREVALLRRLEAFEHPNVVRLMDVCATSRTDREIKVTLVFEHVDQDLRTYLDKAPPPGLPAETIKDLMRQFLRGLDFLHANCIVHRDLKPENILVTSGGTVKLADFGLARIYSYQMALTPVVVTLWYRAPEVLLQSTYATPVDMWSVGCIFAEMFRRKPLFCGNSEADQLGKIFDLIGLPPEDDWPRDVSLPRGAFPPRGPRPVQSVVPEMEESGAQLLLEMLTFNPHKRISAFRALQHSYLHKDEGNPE

degradation of CDK4 (CDK4)	degradation of CDK6 (CDK6)	Kd (Human DDB1)	compound-induced degradation under co-administration of MG-132 or bortezomib (BTZ), or MLN4924 (P300 [1])	time at which significant degradation of P300 was detected (P300 [2]; 500 nM, time course)	time at which significant degradation of CBP was detected (CBP; 500 nM, time course)	SMILES	P300 protein levels (P300 [2]; [3])	viability of LNCaP cells (LNCaP cells; 10 μM top, 12-point 3-fold serial dilution)	inhibitory effects on the growth of LNCaP cells compared to GNE-781 (LNCaP cells)	CBP protein levels (CBP; [3])
Significant degradation	Significant degradation	< 20 µM	–	–	–	CC(=O)Nc1cc(NCCOCCOCCOCCOCCOCCOCCNC(=O)CN2CCN(c3ccc(Nc4ncc5c(C)c(C(C)=O)c(=O)n(C6CCCC6)c5n4)nc3)CC2)ccc1C(=O)Nc1nc(C)c([N+](=O)[O-])s1 [D-49, 2-Acetamido-4-((1-(4-(6-((6-acetyl-8-cyclopentyl-5-methyl-7-oxo-7,8-dihydropyrido[2,3-d]pyrimidin-2-yl)amino)pyridin-3-yl)piperazin-1-yl)-2-oxo-6,9,12,15,18,21-hexaoxa-3-azatricosan-23-yl)amino)-N-(4-methyl-5-nitrothiazol-2-yl)benzamide]	–	–	–	–
–	–	20 to 100 µM	compromised	2 to 4 h	2 to 4 h	CC(=O)Nc1cc(NCCCCNC(=O)CN2CCC(n3nc(N4CCCc5cc(-c6cnn(C)c6)c(C(F)F)cc54)c4c3CCN(C(C)=O)C4)CC2)ccc1C(=O)Nc1nc(C)c([N+](=O)[O-])s1 [D-2, 2-Acetamido-4-((4-(2-(4-(5-acetyl-3-(7-(difluoromethyl)-6-(1-methyl-1H-pyrazol-4-yl)-3,4-dihydroquinolin-1 (2H)-yl)-4,5,6,7-tetrahydro-1H-pyrazolo[4,3-c]pyridin-1-yl)piperidin-1-yl)acetamido)butyl)amino)-N-(4-methyl-5-nitrothiazol-2-yl)benzamide]	significantly decreased in a concentration-dependent manner	dose-dependently suppressed viability of LNCaP cells	more potent inhibitory effects	significantly decreased in a concentration-dependent manner
Significant degradation	Significant degradation	< 20 µM	–	–	–	CC(=O)Nc1cc(NCCOCCOCCOCCOCCOCCNC(=O)CN2CCN(c3ccc(Nc4ncc5c(C)c(C(C)=O)c(=O)n(C6CCCC6)c5n4)nc3)CC2)ccc1C(=O)Nc1nc(C)c([N+](=O)[O-])s1 [D-48, 2-Acetamido-4-((1-(4-(6-((6-acetyl-8-cyclopentyl-5-methyl-7-oxo-7,8-dihydropyrido[2,3-d]pyrimidin-2-yl)amino)pyridin-3-yl)piperazin-1-yl)-2-oxo-6,9,12,15,18-pentaoxa-3-azaicosan-20-yl)amino)-N-(4-methyl-5-nitrothiazol-2-yl)benzamide]	–	–	–	–
